In patent US20190359681A1, “NOVEL MINOR HISTOCOMPATIBILITY ANTIGENS AND USES THEREOF” (UNIVERSITÉ DE MONTRÉAL, priority 2015, published 2019):

system: T cells from MiHA-negative individuals; assay: Immunogenicity: T cells primed with MiHA-pulsed autologous dendritic cells, IFNγ ELISpot and intracellular cytokine staining; type: cell-based, human; conditions: T cells from four MiHA-negative individuals primed with autologous dendritic cells pulsed with synthetic MiHA; re-exposed to MiHA vs no peptide or irrelevant peptide
Procedure: Determination of the immunogenicity of the identified MiHAs. T cells and monocytes were purified from 100-150×10^6 PBMCs obtained from MiHA-negative individuals using MACS® cell separation columns (Miltenyi Biotec®) or EasySep™ kits (Stemcell Technologies®). Monocyte-derived dendritic cells were generated as previously described (3) and matured with GM-CSF, IL-4, PGE2, TNFα, IL-1β, IL-6 and IFNγ. These dendritic cells were then irradiated at 40 Gy and pulsed with 2 μg/mL of the synthetic MiHA peptide (GLRX3-1^S, WDR27-1^L, MIIP-2^E, or RASSF1-1^S) or an irrelevant peptide (Epstein-Barr virus LMP2^426-434) that was used a negative control. Pulsed or unpulsed dendritic cells were then co-cultured with previously enriched autologous T cells (5×10^5/well) in 48-well plates in advanced RPMI medium supplemented with 10% of human serum, 1% of L-Glutamine and 30 ng/mL of IL-21 at a 1:4 (stimulator:effector) ratio. Supplemented media with IL-7 and IL-15 was added after 3, 5 and 7 days of culture and cells were transferred in 12-well plates and 6-well plates at day 5 and 7, respectively. After 10 days of culture, T cells were harvested to determine antigen reactivity with ELISpot for IFNγ and polyfunctional intracellular cytokine staining. Briefly, ELISpot analysis was performed according to the manufacturer's instructions (MABtech®) and intracellular staining was performed after restimulation with 5 μg/mL of peptide in the presence of Brefeldin A for 4 hours. […] Acquisition was performed with a BD™ LSR II flow cytometer and data were analyzed using Flowlogic™ software (Inivai Technologies®).
As a proof of principle, the immunogenicity of four novel MiHAs was tested: GLRX3-1^S, MIIP-2^E, RASSF1-1^S and WDR27-1^L (FIGS. 3A-3D). […] Read-out of antigen-reactivity was assessed by ELISpot (FIG. 3A) and intracellular staining assays (FIGS. 3B-3D).

Substance	cytokine production by primed T cells (antigen-reactivity by ELISpot and intracellular staining)
S/AEIEQKIKEY (SEIEQKIKEY) [RASSF1-1^S]	produced cytokines in a MiHA-specific fashion in all tested donors
EESAVPE/KRSW (EESAVPERSW) [MIIP-2^E]	produced cytokines in a MiHA-specific fashion in all tested donors
FLS/PSANEHL [GLRX3-1^S, synthetic peptide tested for immunogenicity]	produced cytokines in a MiHA-specific fashion in all tested donors
